Source: US20180320217A1, “METHODS FOR SAMPLING AND MEASURING ORAL LAVAGE PROTEINS” (The Procter & Gamble Company, priority 2017, published 2018)
Where “and” joins values, the source holds several entries; their conditions need not be identical. Identical values can stand only once. Entries after “also recorded” stand apart in the source; their conditions may differ.

How the values were obtained:
diaphorase [1] = assay: Effect of concentrations of tetrazolium salts on formation of formazan dyes (FIGS. 4A-4G); assay type: biochemical; conditions: 15 mM NADH+H, 20 μg diaphorase, pH 7.5; FIGS. 4A to 4G
Procedure: On the idea that higher concentrations of tetrazolium salts in the assay buffer would likely result in more formazan dyes in the reaction, various concentrations of tetrazolium salts were added to a reaction buffer and the formation of formazan dyes were measured at 0, 30 and 60 minutes. […] The reactions were performed at room temperature. Absorbance was taken at 0, 30 and 60 minutes.

[2] = tested on: Malate dehydrogenase and diaphorase; assay: Formation of formazan dyes: Malate dehydrogenase, diaphorase and malate (TABLE 10); assay type: biochemical, pig heart
[3] = tested on: Malate dehydrogenase and diaphorase; assay: Formation of formazan dyes: Malate dehydrogenase and diaphorase, absence of malate (TABLE 9); assay type: biochemical, pig heart
oral lavage [4] = assay: Formation of formazan dyes: oral lavage and diaphorase, not malate (TABLE 11); assay type: biochemical, human
[5] = Formation of formazan dyes: control buffer and 1-Methoxy PMS, absence of malate (TABLE 21); assay type: biochemical; conditions: monosodium salt
oral lavage [6] = assay: Formation of formazan dyes: oral lavage, malate and diaphorase (TABLE 12); assay type: biochemical, human; conditions: oral lavage, malate and diaphorase
Malate dehydrogenase [7] = target: T1, Malate dehydrogenase (Sus scrofa, UniProt P00346); assay: Formation of formazan dyes: Malate dehydrogenase, malate and 1-Methoxy PMS (TABLE 18); assay type: biochemical, pig heart; parameters: L-malate dehydrogenase (pig heart); purchased Sigma-Aldrich 10127248001 / 10127914001; conditions: monosodium salt
T1 sequence (P00346 25-338): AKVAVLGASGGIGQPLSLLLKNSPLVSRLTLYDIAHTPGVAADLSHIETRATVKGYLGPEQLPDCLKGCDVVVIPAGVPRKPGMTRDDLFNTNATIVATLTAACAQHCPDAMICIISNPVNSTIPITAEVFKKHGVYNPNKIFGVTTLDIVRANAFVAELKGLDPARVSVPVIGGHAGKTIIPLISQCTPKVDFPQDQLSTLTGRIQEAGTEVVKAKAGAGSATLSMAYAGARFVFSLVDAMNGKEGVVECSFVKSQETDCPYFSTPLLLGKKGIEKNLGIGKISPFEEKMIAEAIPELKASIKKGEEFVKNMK

diaphorase [8] = assay: Formation of formazan dyes: only diaphorase and malate (TABLE 14); assay type: biochemical, Clostridium kluyveri; conditions: mean of three experiments
Malate dehydrogenase [9] = target: T1, Malate dehydrogenase; assay: Formation of formazan dyes: Malate dehydrogenase and 1-Methoxy PMS, absence of malate (TABLE 17); assay type: biochemical, pig heart; parameters: L-malate dehydrogenase (pig heart); purchased Sigma-Aldrich 10127248001 / 10127914001
[10] = Formation of formazan dyes: NADH, malate and 1-methoxy PMS (TABLE 16); assay type: biochemical; conditions: monosodium salt
oral lavage [11] = assay: Formation of formazan dyes: oral lavage, malate and 1-Methoxy PMS (TABLE 20); assay type: biochemical, human; conditions: monosodium salt
diaphorase [12] = assay: Formation of formazan dyes: NADH and diaphorase, absence of malate (TABLE 7); assay type: biochemical, Clostridium kluyveri; conditions: NADH and diaphorase, absence of malate
diaphorase [13] = assay: Formation of formazan dyes: only diaphorase, not malate (TABLE 13); assay type: biochemical, Clostridium kluyveri; conditions: mean of three experiments
diaphorase [14] = assay: Formation of formazan dyes: NADH, diaphorase and malate (TABLE 8); assay type: biochemical, Clostridium kluyveri
oral lavage [15] = assay: Formation of formazan dyes: oral lavage and 1-Methoxy PMS, absence of malate (TABLE 19); assay type: biochemical, human; conditions: monosodium salt
[16] = Formation of formazan dyes: control buffer, malate and 1-Methoxy PMS (TABLE 22); assay type: biochemical
[17] = Formation of formazan dyes: NADH and 1-methoxy PMS, absence of malate (TABLE 15); assay type: biochemical; conditions: monosodium salt

## COc1cc([N+](=O)[O-])ccc1-[n+]1nc(-c2ccccc2S(=O)(=O)O)nn1-c1ccc([N+](=O)[O-])cc1 [EZMTT]
Diaphorase [1]
  concentration of tetrazolium salt at which absorbance reached peaks: 2 mM

## O=[N+]([O-])c1ccc(-[n+]2nc(-c3ccc(S(=O)(=O)[O-])cc3S(=O)(=O)[O-])nn2-c2ccc(I)cc2)cc1.[Na+] [WST-1, 2-(4-Iodophenyl)-3-(4-nitrophenyl)-5-(2,4-disulfophenyl)-2H-tetrazolium, monosodium salt]
[2]; Malate dehydrogenase, diaphorase and malate, 0 h
  Formation of formazan dyes, absorbance, Means 0 h: 0.84
[2]; Malate dehydrogenase, diaphorase and malate, 1 h
  Formation of formazan dyes, absorbance, Means 1 h: 1.15
[2]; Malate dehydrogenase, diaphorase and malate, 2 h
  Formation of formazan dyes, absorbance, Means 2 h: 1.31
[2]; Malate dehydrogenase, diaphorase and malate, 3 h
  Formation of formazan dyes, absorbance, Means 3 h: 1.44
[2]; Malate dehydrogenase, diaphorase and malate, 4 h
  Formation of formazan dyes, absorbance, Means 4 h: 1.53
[2]; Malate dehydrogenase, diaphorase and malate, 6 h
  Formation of formazan dyes, absorbance, Means 6 h: 1.69
[2]; Malate dehydrogenase, diaphorase and malate, 8 h
  Formation of formazan dyes, absorbance, Means 8 h: 1.81
[2]; Malate dehydrogenase, diaphorase and malate, 10 h
  Formation of formazan dyes, absorbance, Means 10 h: 1.90
[2]; Malate dehydrogenase, diaphorase and malate, 12 h
  Formation of formazan dyes, absorbance, Means 12 h: 1.96
[2]; malate dehydrogenase, diaphorase and malate (TABLE 10), monosodium salt
  conversion to reduced formazan dyes: converted to reduced formazan dyes in a time-dependent fashion; also recorded: able to catalyze the reduction
[3]; Malate dehydrogenase and diaphorase, absence of malate, 0 h
  Formation of formazan dyes, absorbance, Means 0 h: 0.76
[3]; Malate dehydrogenase and diaphorase, absence of malate, 1 h
  Formation of formazan dyes, absorbance, Means 1 h: 1.13
[3]; Malate dehydrogenase and diaphorase, absence of malate, 2 h
  Formation of formazan dyes, absorbance, Means 2 h: 1.28
[3]; Malate dehydrogenase and diaphorase, absence of malate, 3 h
  Formation of formazan dyes, absorbance, Means 3 h: 1.38
[3]; Malate dehydrogenase and diaphorase, absence of malate, 4 h
  Formation of formazan dyes, absorbance, Means 4 h: 1.47
[3]; Malate dehydrogenase and diaphorase, absence of malate, 6 h
  Formation of formazan dyes, absorbance, Means 6 h: 1.60
[3]; Malate dehydrogenase and diaphorase, absence of malate, 8 h
  Formation of formazan dyes, absorbance, Means 8 h: 1.71
[3]; Malate dehydrogenase and diaphorase, absence of malate, 10 h
  Formation of formazan dyes, absorbance, Means 10 h: 1.78
[3]; Malate dehydrogenase and diaphorase, absence of malate, 12 h
  Formation of formazan dyes, absorbance, Means 12 h: 1.75
[3]; malate dehydrogenase and diaphorase (TABLE 9)
  reduction of tetrazolium dye in the absence of substrate malate: partially reduced
Oral lavage [4]; oral lavage and diaphorase, not malate, 0 h
  Formation of formazan dyes, absorbance, Means 0 h: 1.01
Oral lavage [4]; oral lavage and diaphorase, not malate, 1 h
  Formation of formazan dyes, absorbance, Means 1 h: 1.24
Oral lavage [4]; oral lavage and diaphorase, not malate, 2 h
  Formation of formazan dyes, absorbance, Means 2 h: 1.28
Oral lavage [4]; oral lavage and diaphorase, not malate, 3 h
  Formation of formazan dyes, absorbance, Means 3 h: 1.30
Oral lavage [4]; oral lavage and diaphorase, not malate, 4 h
  Formation of formazan dyes, absorbance, Means 4 h: 1.29
Oral lavage [4]; oral lavage and diaphorase, not malate, 6 h
  Formation of formazan dyes, absorbance, Means 6 h: 1.42
Oral lavage [4]; oral lavage and diaphorase, not malate, 8 h
  Formation of formazan dyes, absorbance, Means 8 h: 1.34
Oral lavage [4]; oral lavage and diaphorase, not malate, 10 h
  Formation of formazan dyes, absorbance, Means 10 h: 1.31
Oral lavage [4]; oral lavage and diaphorase, not malate, 12 h
  Formation of formazan dyes, absorbance, Means 12 h: 1.42
Oral lavage [4]; pooled oral lavage of high bleeder group, diaphorase, no added malate (TABLE 11)
  reduction to formazan dyes by pooled oral lavage: partially reduced to formazan dyes
[5]
  Absorbance, formation of formazan dyes (Means): 0.53 and 0.74 and 0.65 and 0.88
Oral lavage [6]; 0 h
  Formation of formazan dyes, absorbance, Means 0 h: 0.88
Oral lavage [6]; 1 h
  Formation of formazan dyes, absorbance, Means 1 h: 1.19
Oral lavage [6]; 2 h
  Formation of formazan dyes, absorbance, Means 2 h: 1.19
Oral lavage [6]; 3 h
  Formation of formazan dyes, absorbance, Means 3 h: 1.23
Oral lavage [6]; 4 h
  Formation of formazan dyes, absorbance, Means 4 h: 1.39
Oral lavage [6]; 6 h
  Formation of formazan dyes, absorbance, Means 6 h: 1.31
Oral lavage [6]; 8 h
  Formation of formazan dyes, absorbance, Means 8 h: 1.52
Oral lavage [6]; 10 h
  Formation of formazan dyes, absorbance, Means 10 h: 1.61
Oral lavage [6]; 12 h
  Formation of formazan dyes, absorbance, Means 12 h: 1.75
Malate dehydrogenase [7]
  Absorbance, formation of formazan dyes (Means): 0.51 and 0.64 and 0.72 and 0.79
Diaphorase [8]; 0 h
  Absorbance, formation of formazan dyes (Means): 0.20
Diaphorase [8]; 1 h
  Absorbance, formation of formazan dyes (Means): 0.22
Diaphorase [8]; 2 h
  Absorbance, formation of formazan dyes (Means): 0.23
Diaphorase [8]; 3 h
  Absorbance, formation of formazan dyes (Means): 0.24
Diaphorase [8]; 4 h
  Absorbance, formation of formazan dyes (Means): 0.24
Diaphorase [8]; 6 h
  Absorbance, formation of formazan dyes (Means): 0.25
Diaphorase [8]; 8 h
  Absorbance, formation of formazan dyes (Means): 0.26
Diaphorase [8]; 10 h
  Absorbance, formation of formazan dyes (Means): 0.27
Diaphorase [8]; 12 h
  Absorbance, formation of formazan dyes (Means): 0.27
Malate dehydrogenase [9]
  reduction by malate dehydrogenase alone: did not catalyze the reduction
Malate dehydrogenase [9]; monosodium salt
  Absorbance, formation of formazan dyes (Means): 0.51 and 0.71 and 0.59 and 0.90
[10]
  Absorbance, formation of formazan dyes (Means): 1.83 and 1.81 and 1.79
Oral lavage [11]
  Absorbance, formation of formazan dyes (Means): 1.20 and 1.68 and 2.01 and 2.32
Diaphorase [12]; 0 h
  Formation of formazan dyes, absorbance, Means 0 h: 3.54
Diaphorase [12]; 1 h
  Formation of formazan dyes, absorbance, Means 1 h: 3.60
Diaphorase [12]; 2 h
  Formation of formazan dyes, absorbance, Means 2 h: 3.59
Diaphorase [12]; 3 h
  Formation of formazan dyes, absorbance, Means 3 h: 3.60
Diaphorase [12]; 4 h
  Formation of formazan dyes, absorbance, Means 4 h: 3.59
Diaphorase [12]; 6 h
  Formation of formazan dyes, absorbance, Means 6 h: 3.59
Diaphorase [12]; 8 h
  Formation of formazan dyes, absorbance, Means 8 h: 3.55
Diaphorase [12]; 10 h
  Formation of formazan dyes, absorbance, Means 10 h: 3.52
Diaphorase [12]; 12 h
  Formation of formazan dyes, absorbance, Means 12 h: 3.45
Diaphorase [13]; 0 h
  Absorbance, formation of formazan dyes (Means): 0.41
Diaphorase [13]; 1 h
  Absorbance, formation of formazan dyes (Means): 0.60
Diaphorase [13]; 2 h
  Absorbance, formation of formazan dyes (Means): 0.66
Diaphorase [13]; 3 h
  Absorbance, formation of formazan dyes (Means): 0.69
Diaphorase [13]; 4 h
  Absorbance, formation of formazan dyes (Means): 0.70
Diaphorase [13]; 6 h
  Absorbance, formation of formazan dyes (Means): 0.71
Diaphorase [13]; 8 h
  Absorbance, formation of formazan dyes (Means): 0.73
Diaphorase [13]; 10 h
  Absorbance, formation of formazan dyes (Means): 0.69
Diaphorase [13]; 12 h
  Absorbance, formation of formazan dyes (Means): 0.67
Diaphorase [14]; NADH, diaphorase and malate, 0 h
  Formation of formazan dyes, absorbance, Means 0 h: 2.63
Diaphorase [14]; NADH, diaphorase and malate, 1 h
  Formation of formazan dyes, absorbance, Means 1 h: 2.60
Diaphorase [14]; NADH, diaphorase and malate, 2 h
  Formation of formazan dyes, absorbance, Means 2 h: 2.59
Diaphorase [14]; NADH, diaphorase and malate, 3 h
  Formation of formazan dyes, absorbance, Means 3 h: 2.57
Diaphorase [14]; NADH, diaphorase and malate, 4 h
  Formation of formazan dyes, absorbance, Means 4 h: 2.55
Diaphorase [14]; NADH, diaphorase and malate, 6 h
  Formation of formazan dyes, absorbance, Means 6 h: 2.52
Diaphorase [14]; NADH, diaphorase and malate, 8 h
  Formation of formazan dyes, absorbance, Means 8 h: 2.48
Diaphorase [14]; NADH, diaphorase and malate, 10 h
  Formation of formazan dyes, absorbance, Means 10 h: 2.44
Diaphorase [14]; NADH, diaphorase and malate, 12 h
  Formation of formazan dyes, absorbance, Means 12 h: 2.38
Diaphorase [14]; TABLE 8 compared with TABLE 7
  level reduced to formazan dyes in the presence of malate: lower level
Oral lavage [15]
  Absorbance, formation of formazan dyes (Means): 1.19 and 1.52 and 1.61 and 1.76
[16]
  Means absorbance 0 h: 0.31
  Means absorbance 1 h: 0.31
  Means absorbance 2 h: 0.32
  Means absorbance 3 h: 0.32
[17]
  Absorbance, formation of formazan dyes (Means): 2.52 and 2.71 and 2.59 and 2.80
